Assay results from ChEMBL document CHEMBL5604063, “ASAP - DENV-2 NS2B-NS3 protease fluorescence dose response” (2024).
Where “and” joins values, the source holds several entries; their conditions need not be identical. Equal entries are not always repeated.

Key:
Genome polyprotein [1] = molecular target: T1, Genome polyprotein (dengue virus type 2, UniProt P29990); assay type: functional, Thailand/16681/1984
Genome polyprotein [2] = molecular target: T1, Genome polyprotein; assay type: functional, Thailand/16681/1984; remark: listed apart in the source

T1 sequence (P29990 1346-1475 limits assumed): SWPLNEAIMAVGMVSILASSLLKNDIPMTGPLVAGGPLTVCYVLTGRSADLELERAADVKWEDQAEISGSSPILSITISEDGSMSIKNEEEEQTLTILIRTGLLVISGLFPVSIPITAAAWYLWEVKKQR
T1 sequence (P29990 1476-2093 limits assumed): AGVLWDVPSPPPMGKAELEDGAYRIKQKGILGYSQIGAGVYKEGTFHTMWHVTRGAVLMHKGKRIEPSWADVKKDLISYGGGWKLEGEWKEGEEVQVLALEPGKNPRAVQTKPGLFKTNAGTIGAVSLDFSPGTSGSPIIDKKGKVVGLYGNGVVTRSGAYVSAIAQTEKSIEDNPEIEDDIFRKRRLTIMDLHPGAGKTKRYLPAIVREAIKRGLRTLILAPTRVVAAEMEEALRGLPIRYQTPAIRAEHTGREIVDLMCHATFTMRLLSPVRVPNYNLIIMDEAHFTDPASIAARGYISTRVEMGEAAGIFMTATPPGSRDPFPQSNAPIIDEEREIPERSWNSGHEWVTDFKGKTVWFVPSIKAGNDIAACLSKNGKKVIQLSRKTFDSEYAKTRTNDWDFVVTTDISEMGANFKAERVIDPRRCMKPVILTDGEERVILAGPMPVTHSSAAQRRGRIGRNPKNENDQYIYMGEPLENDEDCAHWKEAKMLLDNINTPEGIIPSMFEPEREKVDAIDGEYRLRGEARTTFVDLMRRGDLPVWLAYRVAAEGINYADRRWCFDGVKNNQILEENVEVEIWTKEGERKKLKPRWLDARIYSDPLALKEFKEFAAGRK

Row | SMILES | IC50 (Genome polyprotein [1]) | IC50 (Genome polyprotein [2])
1 | O=C(Nc1cc([C@H]2CCOC2)ccn1)c1cc(F)cc2[nH]ccc12 | > 100 µM | > 99.5 µM
2 | O=C(NCC(F)F)[C@H](Nc1ncc2c(n1)CNC2)c1cc(Cl)cc(C2CC2)c1 | > 100 µM | > 99.5 µM
3 | CC(C)(C)NS(=O)(=O)c1cccc(C(=O)Nc2cccc(CN)c2)c1 | > 100 µM | > 99.5 µM
4 | CC(=O)N(c1ccc2c(c1)CNC2)[C@]1(c2cc(Cl)cc(C3CC3)c2)CN(C)C1=O | > 100 µM | > 99.5 µM
5 | O=C(Nc1ccc2c(c1)CNC2)c1cc(Br)cc2[nH]c(-c3ccccc3)nc12 | 5.95 µM and 6.13 µM | 2.73 µM and 2.34 µM
6 | O=C1Nc2ccc(C(=O)Nc3ccc4c(c3)CNC4)cc2C1=O | 5.35 µM and 5.79 µM | 2.66 µM and 1.99 µM
7 | COc1c(Cl)cc(Cl)cc1C(=O)Nc1cccc(CN)c1 | > 100 µM | > 99.5 µM
8 | COCCc1ccnc(NC(=O)c2cc(C3CC3)n(C)c2C)c1 | > 100 µM | > 99.5 µM
9 | O=C(O)Cn1ncc2cc(-c3cc(Cl)cc(NC(=O)OCc4ccccc4)c3)ccc21 | 10.7 µM and 11 µM | 20.8 µM
10 | O=C(Nc1cc(-c2cccnc2)ccn1)c1nnc(C2CC2)s1 | > 100 µM | > 99.5 µM
11 | C[C@H](NC(=O)c1cccc2c1CC(=O)N2)c1nnc2n1CCCC2 | > 100 µM | > 99.5 µM
12 | O=C(NCC(F)F)[C@H](Nc1ccc2c(c1)CNC2)c1cc(Cl)ccc1Sc1ccccc1 | > 100 µM | > 99.5 µM
13 | NCc1cccc(NC(=O)c2cc(Cl)cc3c2OCCNC3)c1 | > 100 µM | > 99.5 µM
14 | NCc1cccc(NC(=O)c2cc3c(c(NC(=O)OCc4ccccc4)c2)OCC3)c1 | > 100 µM | > 99.5 µM
15 | Cc1cccc(CNc2ccc(Cl)cc2C(=O)Nc2cccc(CN)c2)n1 | > 100 µM | > 99.5 µM
16 | O=S(=O)(Nc1cccc(-c2nnn[nH]2)c1)c1cc(Cl)cc2c1OCC2 | > 100 µM | > 99.5 µM
17 | Brc1cnc(Sc2ncc[nH]2)nc1 | > 100 µM | > 99.5 µM
18 | O=C(NCC(F)F)[C@H](Nc1ccc2c(c1)CNC2)c1cc(Cl)ccc1OC[C@H]1CCCO1 | > 100 µM | > 99.5 µM
19 | Cc1ccc(NC(=O)c2cc(Cl)cc3[nH]ncc23)cc1CN | > 100 µM | > 99.5 µM
20 | Cn1c(C2CC2)cc(C(=O)Nc2cc(-c3cccnc3)ccn2)c1C1CC1 | > 100 µM | > 99.5 µM
21 | O=C(O)c1nn(-c2ccccc2)cc1Cc1c[nH]c2ccc(Cl)cc12 | 61 µM | 56.5 µM

Row | SMILES | IC50 (Genome polyprotein [1]) | IC50 (Genome polyprotein [2])
22 | O=C(Nc1ccc2c(c1)CNC2)c1cc(Cl)cc2cn[nH]c12 | > 100 µM | > 99.5 µM
23 | CCc1nc(C(=O)Nc2cccc(CN)c2)nn1-c1c(Cl)cccc1Cl | > 100 µM | > 99.5 µM
24 | COc1ccc(-c2cccc([C@@H](NC(=O)OCc3ccccc3)C(=O)Nc3cccc(CN)c3)c2)cn1 | > 100 µM | > 99.5 µM
25 | O=C(NCC(F)F)[C@H](Nc1ccc2c(c1)CNC2)c1cc(Br)cc2ccccc12 | > 100 µM | > 99.5 µM
26 | O=C(Nc1cc(Cl)cc(C(=O)Nc2cccc(CN3CCCC3=O)c2)c1)OCc1ccccc1 | > 100 µM | > 99.5 µM
27 | Cc1cc(CN)cc(NC(=O)c2cc(Cl)cc3[nH]ncc23)c1 | 85.4 µM | 98.3 µM
28 | O=C(Nc1ccc2c(c1)CN(C(=O)C(F)(F)F)C2)c1cc(Cl)cc2[nH]ncc12 | > 100 µM | > 99.5 µM
29 | CCc1[nH]c2ccccc2c1CN1CCC(c2cscn2)CC1 | > 100 µM | > 99.5 µM
30 | COc1ccc(-c2nc3c(C(=O)Nc4ccc5c(c4)CNC5)cc(Cl)cc3[nH]2)cc1 | 39.5 µM and 40.3 µM | 21.5 µM
31 | NCc1cccc(NC(=O)[C@@H](NC(=O)OCc2ccccc2)c2cccc(-c3ccc(CN)cc3F)c2)c1 | > 100 µM | > 99.5 µM
32 | O=C(Nc1cc(-c2cccnc2)ccn1)c1cccc(C2CC2)c1 | > 100 µM | > 99.5 µM
33 | O=C(Nc1cc(Cl)cc(C(=O)Nc2ccnc(OC3CNC3)c2)c1)OCc1ccccc1 | > 100 µM | > 99.5 µM
34 | Cn1ncc(C(=O)Nc2cc(-c3cccnc3)ccn2)c1C1CC1 | > 100 µM | > 99.5 µM
35 | CNC(=O)c1cccc(C(=O)Nc2ccc3c(c2)CNC3)c1 | > 100 µM | > 99.5 µM
36 | O=C(Cn1ccnc(N2CC[C@H](CO)C2)c1=O)N1CCOCC1 | > 100 µM | > 99.5 µM
37 | CCCc1sc(C(=O)Nc2ccc3c(c2)CNC3)cc1CC | > 100 µM | > 99.5 µM
38 | CC[C@H](Cc1nnn[nH]1)c1ccc(NC(=O)c2cc(Cl)cc(SC)c2)cc1 | 40.6 µM | 67.2 µM
39 | N#Cc1ccc(CN)cc1NC(=O)c1cc(Cl)cc(NC(=O)OCc2ccccc2)c1 | > 100 µM | > 99.5 µM
40 | N#Cc1ccc(-c2nc3c(C(=O)Nc4ccc5c(c4)CNC5)cc(F)cc3[nH]2)cc1 | 11.3 µM and 10.2 µM | 2.9 µM and 2.52 µM
41 | Cn1cc([C@@H]2C[C@H](C(=O)Nc3cccc(CN)c3)CC(=O)N2)cn1 | > 100 µM | > 99.5 µM
42 | Nc1noc2cccc(C(=O)Nc3ccc4c(c3)CNC4)c12 | > 100 µM | > 99.5 µM

Row | SMILES | IC50 (Genome polyprotein [1]) | IC50 (Genome polyprotein [2])
43 | NCc1ccc2c(c1)[C@H](N1CCCC1=O)C[C@H](c1cc(Cl)cc(NC(=O)OCc3ccccc3)c1)N2 | 75.5 µM | > 99.5 µM
44 | CCOCC(=O)N1CCC([C@H](NC(=O)OCc2ccccc2)C(=O)Nc2cccc(CN)c2)CC1 | > 100 µM | > 99.5 µM
45 | Cc1cc(C#N)cc2c(Cc3ccc(-c4nnn[nH]4)cc3)c[nH]c12 | 35 µM | 74.3 µM
46 | CS(=O)(=O)c1ccc(NC(=O)c2cc(Cl)cc(NC(=O)OCc3ccccc3)c2)cc1 | > 100 µM | > 99.5 µM
47 | OCC#C[C@H](Nc1ccc2c(c1)CNC2)c1cc(Cl)cc2[nH]ncc12 | 92.7 µM and 63.7 µM | 25.1 µM
48 | NCc1cccc(NC(=O)c2cc(NC(=O)OCc3ccccc3)cc(C3CC3)c2)c1 | > 100 µM | 76.1 µM
49 | O=C(O)c1cc2cc(-c3cc(Cl)cc4c3CCNC4=O)ccc2[nH]1 | > 100 µM | > 99.5 µM
50 | CC[C@H](Cc1nnn[nH]1)c1ccc(NC(=O)c2cc(Cl)cc(C3CC3)c2)cc1 | 28.7 µM and 35.1 µM | 55.2 µM
51 | O=C(Nc1ccc2c(c1)CNC2)c1cc(Cl)cc(C2CC2)c1 | > 100 µM | > 99.5 µM
52 | NCc1cccc(NC(=O)C[C@H](CC(N)=O)c2ccc(F)cc2)c1 | > 100 µM | > 99.5 µM
53 | N#Cc1cc(C(=O)Nc2ccc3c(c2)CNC3)cc(C(F)(F)F)c1 | > 100 µM | > 99.5 µM
54 | Cc1cc(C(=O)Nc2cccc(CN)c2)cc(NCc2cnn(C)c2)n1 | > 100 µM | > 99.5 µM
55 | NCCCc1ccnc(NC(=O)c2cc(C3CC3)no2)c1 | > 100 µM | > 99.5 µM
56 | NCc1cccc(NC(=O)[C@H](NC(=O)OCc2ccccc2)C2CCN(C(=O)c3ccccc3)CC2)c1 | > 100 µM | > 99.5 µM
57 | NCc1ccc(C#CCO)c(NC(=O)c2cc(Cl)cc(NC(=O)OCc3ccccc3)c2)c1 | > 100 µM | 38 µM
58 | NCCCc1ccnc(NC(=O)c2csc(C3CC3)n2)c1 | > 100 µM | > 99.5 µM
59 | CCc1cc(C(=O)Nc2ccc3c(c2)CNC3)sc1-c1ccc(Cl)cc1 | > 100 µM | > 99.5 µM
60 | NCc1cccc(NC(=O)[C@H](NC(=O)OCc2ccccc2)C2CCN(C(=O)C3CCOCC3)CC2)c1 | > 100 µM | > 99.5 µM
61 | COc1ncc(Cl)cc1C(=O)Nc1ccc2c(c1)CNC2 | > 100 µM | > 99.5 µM
